Consider four molecules from PMC6584500, “Small-molecule targeting of MUSASHI RNA-binding activity in acute myeloid leukemia” (Nature Communications, 2019).

For series [1], the target named is T1, GST-MSI2 (full-length human MSI2) (Homo sapiens, UniProt Q96DH6).
T1 construct: full-length, N-terminal GST-Flag tag kept (pGEX6P3), expressed in E. coli BL21(DE3)
Description: fluorescence polarization, RNA-binding inhibition. In kind it is biochemical.

The target of series [2] is T1, GST-MSI2 (full-length human MSI2). The series can be described thus: microscale thermophoresis. The series is classed as binding. Background: MST reads how a fluorescent partner responds to local heating, with and without ligand.
Series [3] has the same target. Description: fluorescence polarization, RNA-binding inhibition. In general terms: Fluorescence polarisation rises when a labelled molecule tumbles more slowly, as on binding a larger partner.
Series [4] deals with T2, MSI2 RRM1 (Homo sapiens, UniProt Q96DH6).
T2 construct: RNA-recognition motif 1 only (nucleotides 64-270 of NM_138962.2 as printed); GST-RRM1 made in BL21(DE3); for NMR His6-SUMO fusion with tag cleaved
T2 sequence (Q96DH6 22-104): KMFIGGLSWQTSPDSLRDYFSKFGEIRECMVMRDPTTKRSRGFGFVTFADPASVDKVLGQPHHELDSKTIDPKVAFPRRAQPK
Description: NMR chemical shift perturbation. The settings on record: 15N-labelled RRM1, tag removed, 20 mM MES, 150 mM NaCl, pH 6.0, 5 °C. In kind it is binding.

Series [5] deals with T3, GST-MSI2 (full-length human MSI2) (Homo sapiens, UniProt Q96DH6, K22A).
T3 construct: full-length, N-terminal GST-Flag tag kept (pGEX6P3), expressed in E. coli BL21(DE3)
T3 sequence (Q96DH6 whole entry K22A): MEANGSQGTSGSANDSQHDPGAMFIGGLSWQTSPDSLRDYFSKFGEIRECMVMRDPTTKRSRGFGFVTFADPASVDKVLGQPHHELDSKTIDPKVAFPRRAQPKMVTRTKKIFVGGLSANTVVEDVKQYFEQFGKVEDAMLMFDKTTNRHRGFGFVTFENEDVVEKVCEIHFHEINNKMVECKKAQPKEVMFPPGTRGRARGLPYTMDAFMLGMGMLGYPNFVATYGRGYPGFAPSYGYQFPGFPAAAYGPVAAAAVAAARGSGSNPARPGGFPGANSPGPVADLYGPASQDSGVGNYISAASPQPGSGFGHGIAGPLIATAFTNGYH
Description: microscale thermophoresis. The series is classed as binding.

The target of series [6] is T2, MSI2 RRM1. Description: microscale thermophoresis. The series is classed as binding. The settings on record: NT647-labelled protein, pH 7.4, RT.
Series [7] deals with T4, GST-MSI2 (full-length human MSI2) (Homo sapiens, UniProt Q96DH6, F97A).
T4 construct: full-length, N-terminal GST-Flag tag kept (pGEX6P3), expressed in E. coli BL21(DE3)
T4 sequence (Q96DH6 whole entry F97A): as the sequence (Q96DH6 whole entry K22A) above, with A22K, F97A counted along it
The series can be described thus: microscale thermophoresis. The series is classed as binding.

Series [8] deals with T5, GST-SRSF2 (Homo sapiens, UniProt Q01130).
T5 construct: commercial GST-tagged recombinant protein
T5 sequence (Q01130 2-221): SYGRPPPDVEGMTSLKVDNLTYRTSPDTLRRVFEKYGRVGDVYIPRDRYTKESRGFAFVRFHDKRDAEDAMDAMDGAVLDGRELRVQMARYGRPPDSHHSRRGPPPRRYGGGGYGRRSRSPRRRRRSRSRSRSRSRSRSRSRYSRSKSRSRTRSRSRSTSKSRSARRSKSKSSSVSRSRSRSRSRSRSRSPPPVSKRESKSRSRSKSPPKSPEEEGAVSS
Description: microscale thermophoresis. In kind it is binding.

The target of series [9] is T6, GST-MSI2 (full-length human MSI2) (Homo sapiens, UniProt Q96DH6, F66A/F97A/R100A).
T6 construct: full-length, N-terminal GST-Flag tag kept (pGEX6P3), expressed in E. coli BL21(DE3)
T6 sequence (Q96DH6 whole entry F66A/F97A/R100A): as the sequence (Q96DH6 whole entry K22A) above, with A22K, F66A, F97A, R100A counted along it
Description: microscale thermophoresis. The settings on record: NT647-labelled protein, 50 mM HEPES, 100 mM NaCl, 0.05% Tween-20, pH 7.4, RT; no binding.

Series [10] addresses T7, GST-MSI2 (full-length human MSI2) (Homo sapiens, UniProt Q96DH6, R100A).
T7 construct: full-length, N-terminal GST-Flag tag kept (pGEX6P3), expressed in E. coli BL21(DE3)
The series can be described thus: microscale thermophoresis. In kind it is binding.

Series [11] concerns the target T8, GST-SYNCRIP (Homo sapiens, UniProt O60506).
T8 construct: N-terminal GST-Flag tag kept (pGEX6P3), expressed in E. coli BL21(DE3)
T8 sequence (O60506 1-623): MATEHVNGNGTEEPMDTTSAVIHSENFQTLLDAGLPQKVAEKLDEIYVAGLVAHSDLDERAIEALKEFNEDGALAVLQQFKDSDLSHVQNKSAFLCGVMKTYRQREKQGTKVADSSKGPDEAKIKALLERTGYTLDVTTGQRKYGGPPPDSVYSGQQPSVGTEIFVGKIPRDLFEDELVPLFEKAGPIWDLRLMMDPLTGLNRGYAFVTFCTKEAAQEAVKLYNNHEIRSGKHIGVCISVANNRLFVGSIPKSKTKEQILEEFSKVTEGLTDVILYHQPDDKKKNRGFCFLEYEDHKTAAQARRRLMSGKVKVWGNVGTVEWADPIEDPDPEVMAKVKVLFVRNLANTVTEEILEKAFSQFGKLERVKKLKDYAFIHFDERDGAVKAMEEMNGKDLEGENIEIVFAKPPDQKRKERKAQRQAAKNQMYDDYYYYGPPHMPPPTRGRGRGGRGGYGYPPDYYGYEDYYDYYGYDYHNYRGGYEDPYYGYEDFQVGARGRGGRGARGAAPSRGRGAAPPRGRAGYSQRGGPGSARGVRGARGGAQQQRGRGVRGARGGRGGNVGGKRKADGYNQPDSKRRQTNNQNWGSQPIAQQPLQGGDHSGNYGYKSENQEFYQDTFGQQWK
Description: microscale thermophoresis. In kind it is binding.

Series [12] concerns the target T9, bovine serum ALBUMIN (Bos taurus, UniProt P02769).
T9 construct: gene ALB
Description: microscale thermophoresis. The series is classed as binding.

In series [13] the target is T10, GST-MSI2 (full-length human MSI2) (Homo sapiens, UniProt Q96DH6, F66A).
T10 construct: full-length, N-terminal GST-Flag tag kept (pGEX6P3), expressed in E. coli BL21(DE3)
T10 sequence (Q96DH6 whole entry F66A): as the sequence (Q96DH6 whole entry K22A) above, with A22K, F66A counted along it
The series can be described thus: microscale thermophoresis. The series is classed as binding.

Series [14] addresses T1, GST-MSI2 (full-length human MSI2). The series can be described thus: fluorescence polarization, RNA-binding inhibition. In kind it is biochemical. The settings on record: Cy3-C9-rGUAGUAGU RNA oligo, 384-well; no inhibition.
The target in series [15] is MSI2 K22A (Homo sapiens, UniProt Q96DH6 1-328, K22A). The series can be described thus: MST; MST: 50 mM HEPES, 100 mM NaCl, 0.05% Tween-20, pH 7.4, RT; EMSA: 10 mM HEPES, 20 mM KCl (+10 mM KCl), 1 mM MgCl2, 1 mM DTT, 5% glycerol, 100 ug/mL tRNA, 40 nM RNA, RT. The conditions noted are these: protein: recombinant; tags: GST, Flag; single strand.
Chain of MSI2 K22A (Q96DH6 whole entry K22A): as the sequence (Q96DH6 whole entry K22A) above
For series [16], the target named is MSI2 F66A (Homo sapiens, UniProt Q96DH6 1-328, F66A). The series is described as above. The settings on record: protein: recombinant; tags: GST, Flag; single strand.
Chain of MSI2 F66A (Q96DH6 whole entry F66A): as the sequence (Q96DH6 whole entry K22A) above, with A22K, F66A counted along it
Series [17] has as its target MSI2 R100A (Homo sapiens, UniProt Q96DH6 1-328, R100A). The series is described as above. The conditions noted are these: protein: recombinant; tags: GST, Flag; single strand.
For series [18], the target named is MSI2 WT (Homo sapiens, UniProt Q96DH6 1-328). Described as above. The conditions noted are these: protein: recombinant; tags: GST, Flag; single strand.
Chain of MSI2 WT (Q96DH6 whole entry): as the sequence (Q96DH6 whole entry K22A) above, with A22K counted along it
For series [19], the target named is MSI2 F97A (Homo sapiens, UniProt Q96DH6 1-328, F97A). The description is as above. The settings on record: protein: recombinant; tags: GST, Flag; single strand.
Chain of MSI2 F97A (Q96DH6 whole entry F97A): as the sequence (Q96DH6 whole entry K22A) above, with A22K, F97A counted along it

Like-named read-outs stand apart in the source and are kept apart here.

T1 sequence (Q96DH6 whole entry): as the sequence (Q96DH6 whole entry K22A) above, with A22K counted along it
T7 sequence (Q96DH6 whole entry R100A): as the sequence (Q96DH6 whole entry K22A) above, with A22K, R100A counted along it
Chain of MSI2 R100A (Q96DH6 whole entry R100A): as the sequence (Q96DH6 whole entry K22A) above, with A22K, R100A counted along it
T9 sequence (P02769 25-607): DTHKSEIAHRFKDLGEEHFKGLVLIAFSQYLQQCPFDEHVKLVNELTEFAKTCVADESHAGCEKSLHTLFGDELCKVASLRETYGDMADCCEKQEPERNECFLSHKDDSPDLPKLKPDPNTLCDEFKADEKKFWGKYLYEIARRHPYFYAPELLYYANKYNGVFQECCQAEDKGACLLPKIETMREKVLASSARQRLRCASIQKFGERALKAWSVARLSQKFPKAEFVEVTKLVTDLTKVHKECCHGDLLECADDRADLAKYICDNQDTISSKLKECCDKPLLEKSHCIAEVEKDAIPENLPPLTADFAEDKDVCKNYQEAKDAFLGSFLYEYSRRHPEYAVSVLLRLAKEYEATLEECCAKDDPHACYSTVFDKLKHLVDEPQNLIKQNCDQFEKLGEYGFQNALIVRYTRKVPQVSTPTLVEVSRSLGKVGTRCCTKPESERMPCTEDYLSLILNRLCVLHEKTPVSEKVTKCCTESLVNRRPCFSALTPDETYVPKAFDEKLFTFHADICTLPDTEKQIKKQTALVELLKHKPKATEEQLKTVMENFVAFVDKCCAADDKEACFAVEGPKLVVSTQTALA

For orientation: IC50 means the concentration at which inhibition is half-maximal. Low values mean inhibition by little substance, high ones a need for much substance. For orientation: Kd means the equilibrium constant for the complex coming apart. In turn, `Cc1cc2nc3c(=O)[nH]c(=O)nc-3n(C)c2cc1CO` [Ro-OH] returned an IC50 in series [1] of 25 ± 8 µM. This molecule also gave a Kd in [2] of 302 ± 119 µM.
`Cc1cc2nc3c(=O)[nH]c(=O)nc-3n(C)c2cc1C=O` [Ro, Ro 08–2750] displayed an IC50 in [3] of 2.7 ± 0.4 µM. Moreover, the “NMR chemical shift perturbation” value in series [4] is on record as “observed three main regions with structural changes by titrating MSI2 with Ro”. Moreover, the dissociation constant (Kd) was greater than 200 µM in [5]; 24.3 ± 4 µM in [6]; 12.3 ± 0.5 µM in series [2]; 69.5 ± 14.7 µM in series [7]; 190 ± 62 µM in [8]; 148 ± 65 µM in series [10]. In addition, the Kd in [11] was 236 ± 167 µM; in series [12], greater than 500 µM; in series [13], greater than 200 µM. Also, the microscale thermophoresis entry in series [9] is listed as “The triple mutant (F66A/F97A/R100A) was incapable of binding to Ro”.
Molecule `CC(=O)Nc1ccc2nc3c(=O)n(C)c(=O)n(C)c3nc2c1` [Ro-NGF] came in with a Kd in [2] (NT647-labelled protein, 50 mM HEPES, 100 mM NaCl, 0.05% Tween-20, pH 7.4, RT, no interaction detected up to 500 μM) greater than 500 µM. The “fluorescence polarization, RNA-binding inhibition” value in series [14] is on record as “Ro-NGF failing to inhibit RNA-binding activity”.
For GUAGUAGUAGUAGUA (ssRNA) [15-nt MSI RNA oligo], the Kd in series [15] came out at 0.0064 ± 0.0006 µM; in series [16] it was 0.0062 ± 0.0006 µM; in [17], 0.0065 ± 0.0009 µM; in series [18], 0.0088 ± 0.0009 µM; in series [19], 0.0066 ± 0.001 µM.
